Source: article PMC11873125 (Scientific Reports, 2025)
“Also recorded” adds a separate entry of the source.

Columns and labels:
[1] = Solubility observation during SAR testing; format: physicochemical
[2] = system: LMNB1 in TRE-FLAG-LMNB1 MEF; experiment: Primary HCS assay, LMNB1 intensity, dose-response; format: cell-based, mouse; conditions: DOX medium, 48 h, ten-point dose-response
[3] = system: LMNB1 in TRE-FLAG-LMNB1 MEF; experiment: Western blot of LMNB1 in TRE-FLAG-LMNB1 MEF; format: cell-based, mouse; conditions: 48 h, LMNB1/actin
TRE-FLAG-LMNB1 MEF = experiment: Primary HCS assay, cell numbers; format: cell-based, mouse; conditions: 48 h
[4] = system: LMNA/C in TRE-FLAG-LMNB1 MEF; experiment: Primary HCS assay, LMNA/C intensity; format: cell-based, mouse; conditions: 48 h
LMNB1 = conditions: cited from earlier work
ADLD patient fibroblasts = experiment: Antiproliferative activity and expanded toxicity measurements; format: cell-based, human; conditions: high density, two-day exposure
LMNB in HL-60 cells = conditions: cited from earlier work

SMILES | Effect on LMNB1 levels in dose-response (in words) [2] | Cellular toxicity (in words) (TRE-FLAG-LMNB1 MEF) | further results
COc1cccc(C2CC(c3ccccc3Cl)Nc3ncnn32)c1 (stereo not shown) [CID 663139] |  |  | Solubility (in words) [1]: caused solubility problems
COc1ccc(C2CC(c3ccccc3Cl)Nc3nc(N)nn32)cc1OC (stereo not shown) [CID 3154585] | limited response at the highest concentration tested |  | 
COc1ccc(C2CC(c3ccc(Cl)cc3Cl)Nc3nc(N)nn32)cc1OC (stereo not shown) [CID 3154587] | inactive |  | 
CCOc1ccccc1C1CC(c2ccccc2)Nc2nc(N)nn21 (stereo not shown) [CID 3512343] | retained some activity |  | 
O=C(NCc1ccco1)c1cc2nc(-c3ccc4c(c3)OCO4)cc(C(F)(F)F)n2n1 [MolPort-001–493–770] | very strong reduction of LMNB1, which was an artifact of image analysis |  | 
Oc1ccc(-c2nc(-c3ccncc3)c(-c3ccc(F)cc3)[nH]2)cc1 [SB202190] | dose-dependent decreases in LMNB1 levels | no or low toxicity | Confirmation of LMNB1 reduction by Western blot (in words) [3]: concentration-dependently reduced both human-FLAG-LMNB1 and endogenous mouse LMNB1; Effect on LMNA/C expression, selectivity (in words) [4]: selectively reduced LMNB1 over LMNA/C
Oc1c2ccccc2c2c3c(cccc13)N=N2 [SP600125] | dose-dependent decreases in LMNB1 levels; also recorded: maximum response with SP600125 was small and the curve not sigmoidal | no or low toxicity | Confirmation of LMNB1 reduction by Western blot (in words) [3]: did not confirm; Effect on LMNA/C expression, selectivity (in words) [4]: selectively reduced LMNB1 over LMNA/C
CCOc1ccc(N([C@@H](C)C(=O)Nc2ccc(Br)c(C)c2)S(C)(=O)=O)cc1 [UPCMLDCBRC1002139] | not tolerated |  | 
Cc1c(CNC(=O)c2nn3c(c2Cl)N[C@@H](c2ccccc2)C[C@@H]3C(F)(F)F)cnn1C [UPCMLDCBRC1040264] | abolished activity |  | 
COc1ccccc1NC(=S)N[C@@H](NC(=O)c1cccc(Br)c1)C(Cl)(Cl)Cl [UPCMLDCBRC1049772] | abolished activity |  | 
CO[C@H]1/C=C\C=C(/C)C(=O)NC2=CC(=O)C(NCCN(C)C)=C(C[C@@H](C)C[C@H](OC)[C@H](O)[C@@H](C)/C=C(\C)[C@@H]1OC(N)=O)C2=O [alvespimycin] |  | significant cellular toxicity | Effect on LMNB1 (in words) (LMNB1): reduced LMNB1
CC[C@@]1(O)C(=O)OCc2c1cc1n(c2=O)Cc2cc3ccccc3nc2-1 [camptothecin, (S)-( +)-camptothecin] | dose-dependent decreases in LMNB1 levels | cellular toxicity | Effect on cell numbers, nuclear morphology and cell size (in words) (ADLD patient fibroblasts): reduced cell numbers and caused cells to enlarge; Effect on LMNB levels (in words) (LMNB in HL-60 cells): reduce LMNB levels in HL-60 cells
